Measurements published in US20250312468A1, “ANTI-PROTAC ANTIBODIES AND COMPLEXES” (Merck Patent GmbH, priority 2021, published 2025).

Tests used:
MIC2 = assay: SPR binding of PROTACs to immobilized antibody MIC2; conditions: MIC2, 1:1 kinetic binding model
Method: The binding affinities of hit antibodies MIC1 and MIC2 to a diverse set of VH032-based PROTACs (FIGS. 8A-8B) was determined by surface plasmon resonance (SPR) in a Biacore T200 instrument. The running buffer consist of PBS, 0.05% Tween-20, 2% DMSO and temperature and flow rate were set to 30° C. and 30 μL/min, respectively. The assay setup is depicted exemplarily in FIG. 7A. CM5 sensor chips were coated with antibody (=ligand; 2500 RU) using standard EDC/NHS chemistry. PROTACs (=analytes) were serially diluted (1 μM-1.9 nM) in running buffer, injected to the instrument in consecutive runs and were captured by the antibody resulting in an increase of the corresponding SPR response. After the association step (300 s), running buffer was injected for 600 s and the PROTAC dissociated from the antibody leading to signal decrease. After each run, residual bound PROTAC was removed from the immobilized antibody by injection of 10 mM glycine/HCl, pH 1.5 for 2×30 s regenerating the antibody for the next association and dissociation cycle. To compensate for matrix effects, the measured SPR response signal was subtracted by the analyte response to an inactivated (EDC/NHS, ethanol amine) reference surface omitting the ligand. Furthermore, a DMSO solvent correction was performed and analyte response was subtracted by the running buffer signal. The corrected response was fitted by a 1:1 kinetic binding model yielding the on- (kon) and off-rate (koff) of the PROTAC, as well as its dissociation constant (KD).

CD33xMIC9 = assay: SPR affinity of VHH clone (antibody fusion) to PROTACs; conditions: CD33xMIC9 immobilized, 25° C., read-out: KD [M] for antibody binding to PROTAC
Method: (§1) The kinetic and affinity parameters of protein-PROTAC interactions were evaluated by SPR. The anti-PROTAC VHH clones MIC5-MIC14 were immobilized as CD33 or CLL1 antibody fusion (the manufacturing of fusion proteins and the used linker is described in chapter 7.9) onto a CM5 (Series S) sensor chip via the standard amine coupling procedure, at 25° C. Prior to immobilization, the carboxymethylated surface of the chip was activated with 400 mM 1-ethyl-3-(3-dimethylaminopropyl)-carbodiimide and 100 mM N-hydroxysuccinimide for 7 min. Hit anti-PROTAC VHH as CD33 and CLL1 antibody fusions were diluted to 10 μg/ml in 10 mM Acetate at pH 4.5 and immobilized on the activated surface chip for 7 min, in order to reach 3,000 to 6,000 response units (RU). The remaining activated carboxymethylated groups were blocked with a 10 min injection of 1 M ethanolamine pH 8. HBS-N, which consists of 10 mM HEPES pH 7.4 and 150 mM NaCl, was used as the background buffer during immobilization. PROTACs were prediluted in DMSO, diluted 1:50 in running buffer (12 mM phosphate pH 7.4, 137 mM NaCl, 2.7 mM KCl, 0.05% Tween20, 2% DMSO) and injected at ten different concentrations using two-fold dilution series, from 1 μM to 0.002 μM. A DMSO solvent correction (1%-3%) was performed to account for variations in bulk signal and to achieve high-quality data. Interaction analysis cycles consisted of a 300 sec sample injection (30 μL/min; association phase) followed by 900 sec of buffer flow (dissociation phase).
(§2) All sensorgrams were processed by first subtracting the binding response recorded from the control surface (reference flow-channel), followed by subtracting of the buffer blank injection from the active flow-channel (target protein immobilized). All datasets were fit to a simple 1:1 Langmuir interaction model to determine the kinetic rate constants. Experiments were performed on a Biacore 8k+ (Cytiva, Uppsala, Sweden) at 25° C. and the interactions were evaluated using the provided Biacore Insight Evaluation software.

CD33xMIC6 = assay: as above; conditions: CD33xMIC6 immobilized, 25° C., read-out: KD [M] for antibody binding to PROTAC
Method: as §1, §2

CD33xMIC14 = assay: as above; conditions: CD33xMIC14 immobilized, 25° C., read-out: KD [M] for antibody binding to PROTAC
Method: as §1, §2

CD33xMIC10 = assay: as above; conditions: CD33xMIC10 immobilized, 25° C., read-out: KD [M] for antibody binding to PROTAC
Method: as §1, §2

CD33xMIC8 = assay: as above; conditions: CD33xMIC8 immobilized, 25° C., read-out: KD [M] for antibody binding to PROTAC
Method: as §1, §2

CD33xMIC7 = assay: as above; conditions: CD33xMIC7 immobilized, 25° C., read-out: KD [M] for antibody binding to PROTAC
Method: as §1, §2

CD33xMIC13 = assay: as above; conditions: CD33xMIC13 immobilized, 25° C., read-out: KD [M] for antibody binding to PROTAC
Method: as §1, §2

CLL1xMIC7 = assay: as above; conditions: CLL1xMIC7 immobilized, 25° C., read-out: KD [M] for antibody binding to PROTAC
Method: as §1, §2

CD33xMIC12 = assay: as above; conditions: CD33xMIC12 immobilized, 25° C., read-out: KD [M] for antibody binding to PROTAC
Method: as §1, §2

CD33xMIC11 = assay: as above; conditions: CD33xMIC11 immobilized, 25° C., read-out: KD [M] for antibody binding to PROTAC
Method: as §1, §2

CD33xMIC5 = assay: as above; conditions: CD33xMIC5 immobilized, 25° C., read-out: KD [M] for antibody binding to PROTAC
Method: as §1, §2

| SMILES | Kd (MIC2) [nM] | koff (MIC2) | kon (MIC2) | Kd (CD33xMIC9) [M] | Kd (CD33xMIC6) [M] | Kd (CD33xMIC14) [M] | Kd (CD33xMIC10) [M] | Kd (CD33xMIC8) [M] | Kd (CD33xMIC7) [M] | Kd (CD33xMIC13) [M] | Kd (CLL1xMIC7) [M] | Kd (CD33xMIC12) [M] | Kd (CD33xMIC11) [M] | Kd (CD33xMIC5) [M] |
| --- | --- | --- | --- | --- | --- | --- | --- | --- | --- | --- | --- | --- | --- | --- |
| Cc1ncsc1-c1ccc(CNC(=O)[C@@H]2C[C@@H](O)CN2C(=O)[C@@H](NC(=O)CCCCCCCCCCNC(=O)c2cc3c(cc2CS(C)(=O)=O)-c2cn(C)c(=O)c4[nH]cc(c24)CN3c2ncc(F)cc2F)C(C)(C)C)cc1 [GNE987] | 1.9 | NM/4.10E−05 1/s | NM/2.20E+04 1/Ms | 4.3e-08 | 4.1e-08 | 1e-08 | 1.3e-08 | 6.5e-09 | < 1e-10 | 2.3e-08 | < 1e-10 | 4.2e-08 | 2e-08 | 9.6e-10 |
| Cc1ncsc1-c1ccc([C@H](C)NC(=O)[C@@H]2C[C@@H](O)CN2C(=O)[C@@H](NC(=O)COCCCOCCNC(=O)C[C@@H]2N=C(c3ccc(Cl)cc3)c3c(sc(C)c3C)-n3c(C)nnc32)C(C)(C)C)cc1 [ARV771] | > 1000 |  |  | 4e-09 | 5.3e-08 | 1.4e-07 | 1.4e-07 | 3.1e-08 | 4.2e-09 | 1.3e-08 | 8.8e-09 | 5.6e-09 | 3.7e-09 | 2.7e-07 |
